For experiment [1], the system named is BRAF-MEK1. Kind of experiment: BRAF-MEK TR-FRET assay, stabilization of MEK1 and BRAF interaction. It counts as binding. Particulars: 4 nM BRAF, 10 nM MEK, 100 μM ATP, 1 hr at 25° C., read-out: BRAF-MEK TR-FRET Assay (EC50, fold stabilization). An excerpt:
(§1) Protein expression and purification: BRAF (445-723) with N-term His-tag and C-term StrepII tag was expressed using the Expi293 system (ThermoFisher) and purified using Strep-Tactin® XT-Superflow (IBA) chromatography. ERK1 (full-length) with N-term His-tag was expressed in Rosetta DE3 cells (Millipore) and purified using HisTrap HP (Cytiva) and Superdex 200 (Cytiva) column chromatography. Full-length MEK1 for TR-FRET assays with N-term His-tag was expressed in BL21DE3 cells (ThermoFisher) and purified using HisTrap HP (Cytiva) and Superdex 200 (Cytiva) column chromatography.
Efficacy of exemplary compounds in stabilization of MEK1 and BRAF interaction: Compound stabilization of BRAF-MEK interaction was evaluated using TR-FRET (Time Resolved Fluorescence Energy Transfer). The FRET assay consisted of His-tagged MEK1 (produced in-house), GST-tagged BRAF (SignalChem, B08-11G), Anti His-Tb Cryptate donor, and Anti GST-XL665 acceptor fluorophores (PerkinElmer) to generate FRET signal upon BRAF-MEK1 binding. Compounds were prepared from DMSO stocks in assay buffer (50 mM Tris pH 7.5, 150 mM NaCl, 1 mM DTT, 0.05% Tween-20, 5 mM MgCl2, and 100 μM ATP) and incubated with 4 nM BRAF and 10 nM MEK for 1 hr at 25° C. 1 ng Anti His-Tb Cryptate/20 ng Anti GST-XL665 premix was then added and incubated for 1 hr at 25° C. TR-FRET was measured using Cytation5 microplate reader (Agilent) using Ex/Em=340/620 nm and Ex/Em=340/665 nm to determine the FRET ratio. Fold stabilization was calculated as FRET signal of treated well/DMSO control. Fold stabilization as a function of compound concentration from 2 replicate wells was fit with a 4-parameter logistic curve equation using GraphPad Prism or CDD Vault to derive EC50 values.
(§2) In this table, for the BRAF ADP Glo kinase assay, “A” indicates IC50 of less than 5 nM; “B” indicates IC50 of between 5 nM to 50 nM; and “C” indicates IC50 of between 50 nM to 500 nM. “D” indicates IC50 of greater than 500 nM. For the BRAF-MEK TR-FRET assay, “A” indicates EC50 of less than 50 nM; “B” indicates EC50 of between 50 nM to 200 nM; and “C” indicates EC50 of between 200 nM to 1 μM. “D′” indicates EC50 of greater than 1 μM. For the AlphaLisa P-ERK assay, “A” indicates IC50 of less than 1 nM; “B” indicates IC50 of between 1 nM to 10 nM; and “C” indicates IC50 of between 10 nM to 100 nM. “D” indicates IC50 of greater than 100 nM. For the cell viability assay, “A” indicates IC50 of less than 1 nM; “B” indicates IC50 of between 1 nM to 10 nM; and “C” indicates IC50 of between 10 nM to 100 nM. “D” indicates IC50 of greater than 100 nM.
Background: In TR-FRET formats the signal depends on donor and acceptor labels being close together.

Experiment [2] deals with T1, MEK1 (Homo sapiens, UniProt Q02750).
T1 construct: purchased SignalChem M02-14H
T1 sequence (Q02750 whole entry): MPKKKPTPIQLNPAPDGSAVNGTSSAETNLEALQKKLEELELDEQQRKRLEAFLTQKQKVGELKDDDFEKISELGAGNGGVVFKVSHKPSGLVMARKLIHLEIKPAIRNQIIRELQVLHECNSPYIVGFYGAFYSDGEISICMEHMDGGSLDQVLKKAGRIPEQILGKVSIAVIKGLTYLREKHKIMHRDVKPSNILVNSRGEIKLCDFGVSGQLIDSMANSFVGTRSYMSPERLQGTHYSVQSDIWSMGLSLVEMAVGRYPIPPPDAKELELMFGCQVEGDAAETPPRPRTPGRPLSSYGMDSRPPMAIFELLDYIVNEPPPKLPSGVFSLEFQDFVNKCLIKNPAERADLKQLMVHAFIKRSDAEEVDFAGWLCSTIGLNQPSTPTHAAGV
T1 sequence (P15056 445-723 partner limits assumed): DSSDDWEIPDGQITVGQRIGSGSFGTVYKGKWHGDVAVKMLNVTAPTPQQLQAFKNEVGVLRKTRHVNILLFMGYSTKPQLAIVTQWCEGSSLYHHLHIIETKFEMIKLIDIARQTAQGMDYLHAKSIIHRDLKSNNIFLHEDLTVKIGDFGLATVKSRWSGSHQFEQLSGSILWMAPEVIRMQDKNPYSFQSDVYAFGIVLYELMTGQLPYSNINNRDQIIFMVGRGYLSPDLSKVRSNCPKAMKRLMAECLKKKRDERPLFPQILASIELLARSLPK
Kind of experiment: MEK1 kinase cascade assay (ADP-Glo), inhibition of MEK1 kinase activity. It counts as biochemical. Conditions: 25 nM BRAF, 6.25 nM MEK1, 0.5 μM ERK, 1 mM ATP; 20 min preincubation, 1 hr at 25° C.; read-out: BRAF ADP Glo kinase assay V3 (IC50).
Source text: as §1
Efficacy of exemplary compounds in inhibition of MEK1 kinase activity: The effect of compound MEK1 inhibition was evaluated using an ADP detection system for kinases, such as the ADP-Glo assay (Promega). The MEK1 kinase cascade assay consisted of 9 μL reaction volumes in 384-well white, opaque Optiplates (PerkinElmer). Compounds were prepared from DMSO stocks in assay buffer (10 mM HEPES pH 7.5, 5 mM MgCl2, 2 mM CHAPS, and 1 mM DTT) and preincubated with 25 nM BRAF for 20 mins at 25° C. prior to addition of 6.25 nM MEK1/0.5 μM ERK/1 mM ATP premix to initiate the kinase reaction. Both BRAF and ERK1 were produced in-house, and MEK1 was purchased from SignalChem (M02-14H). DMSO was kept constant at a final concentration of 1%. After a 1 hr incubation at 25° C., conversion of ATP to ADP was detected using ADP-Glo™ reagents according to the manufacturer's protocol. Luminescence was measured using a CLARIOstar microplate reader (BMG). Percent (%) Inhibition was calculated by normalizing to DMSO control (max) and 1 μM Trametinib (min). % inhibition as a function of compound concentration from 2 replicate wells was fit with a 4-parameter logistic curve equation using GraphPad Prism or CDD Vault to derive IC50 values.
as §2

Read-outs that look alike come from different tables or passages of the source.

Experimental findings from patent US20260297105A1, “RAF-MEK PROTEIN COMPLEX MODULATORS AND METHODS OF USE THEREOF” (GANDEEVA THERAPEUTICS, INC., priority 2023, published 2026) are described below.

The term IC50 denotes the point on the concentration scale where inhibition reaches its midpoint. With `CNS(=O)(=O)Nc1cccc(CN2Cc3ccc(Oc4ncco4)c(F)c3OC2=O)c1F` [Compound 91, 8-fluoro-3-{[2-fluoro-3-(methylaminosulfonylamino)phenyl]methyl}-7-(1,3-oxazol-2-yloxy)-3,4-dihydro-2H-1,3-benzoxazin-2-one], the EC50 in experiment [1] fell in the range of 0.2 to 1 µM. In addition, the 50% inhibitory concentration (IC50) in experiment [2] was less than 0.005 µM.
For `CNS(=O)(=O)Nc1cccc(CN2C(=O)Oc3c(ccc(Oc4ncco4)c3F)[C@@H]2C)c1F` (single isomer, unassigned) [Compound 89, (S)-8-fluoro-3-({2-fluoro-3-(methylsulfamoyl)amino]phenyl}methyl)-4-methyl-7-(1,3-oxazol-2-yloxy)-3,4-dihydro-2H-1,3-benzoxazin-2-one or (R)-8-fluoro-3-({2-fluoro-3-(methylsulfamoyl)amino]phenyl}methyl)-4-methyl-7-(1,3-oxazol-2-yloxy)-3,4-dihydro-2H-1,3-benzoxazin-2-one] the same measures were 0.2 to 1 µM and less than 0.005 µM.
For `CNS(=O)(=O)Nc1cccc(CN2C(=O)Oc3cc(OC(=O)N(C)C)ccc3[C@@H]2C)c1F` [Compound 152, 3-(2-fluoro-3-((N-methylsulfamoyl)amino)benzyl)-4-methyl-2-oxo-3,4-dihydro-2H-benzo[e][1,3]oxazin-7-yl dimethylcarbamate] the same measures were 0.2 to 1 µM and 0.005 to 0.05 µM.
In the case of `CNS(=O)(=O)Nc1cccc(CN2Cc3cc(F)c(Oc4ncccn4)cc3OC2=O)c1F` [Compound 83, 6-fluoro-3-{[2-fluoro-3-(methylaminosulfonylamino)phenyl]methyl}-7-(2-pyrimidinyloxy)-3,4-dihydro-2H-1,3-benzoxazin-2-one], the EC50 in experiment [1] lay within 0.2 to 1 µM. Also, the IC50 in experiment [2] was 0.005 to 0.05 µM.
For `CN(C)S(=O)(=O)Nc1nccc(CN2C(=O)Oc3cc(Oc4ncco4)ccc3C23CCC3)c1F` [Compound 179, 3-{[2-(dimethylaminosulfonylamino)-3-fluoro-4-pyridyl]methyl}-7-(1,3-oxazol-2-yloxy)-2H,3H-spiro[1,3-benzoxazine-4,1′-cyclobutan]-2-one] the same measures were 0.2 to 1 µM and 0.005 to 0.05 µM.
Taken in the same sequence, the figures for `CN(C)S(=O)(=O)Nc1cccc(CN2Cc3ccc(Oc4cccnn4)cc3OC2=O)c1F` [Compound 37, 3-{[3-(dimethylaminosulfonylamino)-2-fluorophenyl]methyl}-7-(3-pyridazinyloxy)-3,4-dihydro-2H-1,3-benzoxazin-2-one] were 0.05 to 0.2 µM and 0.005 to 0.05 µM.
For `CNS(=O)(=O)Nc1cccc(CN2Cc3ccc(OC(=O)N(C)C)cc3OC2=O)c1F` [Compound 156, 3-(2-fluoro-3-((N-methylsulfamoyl)amino)benzyl)-2-oxo-3,4-dihydro-2H-benzo[e][1,3]oxazin-7-yl dimethylcarbamate] the same measures were 0.2 to 1 µM and 0.005 to 0.05 µM.
Turning to `CNS(=O)(=O)Nc1cccc(CN2C(=O)Oc3cc(OC(=O)N(C)C)ccc3C23CNC3)c1F` [Compound 49], the EC50 in experiment [1] fell in the range of 0.2 to 1 µM. The half-maximal inhibitory concentration (IC50) in experiment [2] fell in the range of 0.005 to 0.05 µM.
Taken in the same sequence, the figures for `CNS(=O)(=O)Nc1cc(F)cc(CN2Cc3ccc(Oc4cccnn4)cc3OC2=O)c1F` [Compound 200, 3-{[2,5-difluoro-3-(methylaminosulfonylamino)phenyl]methyl}-7-(3-pyridazinyloxy)-3,4-dihydro-2H-1,3-benzoxazin-2-one] were 0.2 to 1 µM and 0.005 to 0.05 µM.
Taken in the same sequence, the figures for `CNS(=O)(=O)Nc1nccc(CN2C(=O)Oc3cc(Oc4cccnn4)ccc3C23COC3)c1F` [Compound 24, 3-({3-fluoro-2-[(methylsulfamoyl)amino]pyridin-4-yl}methyl)-7-(pyridazin-3-yloxy)-2,3-dihydrospiro[1,3-benzoxazine-4,3′-oxetan]-2-one] were 0.05 to 0.2 µM and 0.005 to 0.05 µM.
For the molecule `CNS(=O)(=O)Nc1nccc(CN2C(=O)Oc3cc(Oc4ncco4)c(F)cc3C2C)c1F` (single isomer, unassigned) [Compound 186, 6-fluoro-3-{[3-fluoro-2-(methylaminosulfonylamino)-4-pyridyl]methyl}-4-methyl-7-(1,3-oxazol-2-yloxy)-3,4-dihydro-2H-1,3-benzoxazin-2-one], the EC50 in experiment [1] (60 min) was in the range of 0.2 to 1 µM. Moreover, the IC50 in experiment [2] fell in the range of 0.05 to 0.5 µM.
As for `CNS(=O)(=O)Nc1cccc(CN2C(=O)Oc3cc(Oc4cccnn4)cnc3[C@H]2C)c1F` (stereo in doubt) [Compound 175], the EC50 in experiment [1] was 0.05 to 0.2 µM. Moreover, the IC50 in experiment [2] fell in the range of 0.005 to 0.05 µM.
Taken in the same sequence, the figures for `CNS(=O)(=O)Nc1nccc(CN2C(=O)Oc3cc(Oc4ncco4)cnc3[C@@H]2C)c1F` (stereo in doubt) [Compound 191, 3-{[3-fluoro-2-(methylaminosulfonylamino)-4-pyridyl]methyl}-4-methyl-7-(1,3-oxazol-2-yloxy)-3,4-dihydro-2H-1-oxa-3,5-diazanaphthalen-2-one] were 0.05 to 0.2 µM and 0.05 to 0.5 µM.
For `CNS(=O)(=O)Nc1cccc(CN2C(=O)Oc3c(ccc(Oc4cccnn4)c3F)[C@H]2C)c1F` (single isomer, unassigned) [Compound 36] the same measures were 0.05 to 0.2 µM and 0.005 to 0.05 µM.
For `CNS(=O)(=O)Nc1cccc(CN2C(=O)Oc3cc(Oc4cccnn4)cnc3C23CC3)c1F` [Compound 201, 2′-{[2-fluoro-3-(methylaminosulfonylamino)phenyl]methyl}-6′-(3-pyridazinyloxy)-2′H,3′H-4′-oxa-2′,8′-diazaspiro[cyclopropane-1,1′-naphthalen]-3′-one] the same measures were less than 0.05 µM and less than 0.005 µM.
Take `O=C1Oc2c(ccc(Oc3cccnn3)c2F)C2(CCC2)N1Cc1ccnc(NS(=O)(=O)C2CC2)c1F` [Compound 184, (cyclopropylsulfonyl)[3-fluoro-4-({8-fluoro-2-oxo-7-(3-pyridazinyloxy)-2H,3H-spiro[1,3-benzoxazine-4,1′-cyclobutan]-3-yl}methyl)-2-pyridyl]amine]: the EC50 in experiment [1] was 0.05 to 0.2 µM. Also, in experiment [2], the half-maximal inhibitory concentration (IC50) fell in the range of 0.05 to 0.5 µM.
Take `CNS(=O)(=O)Nc1nccc(CN2C(=O)Oc3cc(Oc4cccnn4)ccc3C2(C)C)c1F` [Compound 32, 3-({3-fluoro-2-[(methylsulfamoyl)amino]pyridin-4-yl}methyl)-4,4-dimethyl-7-(pyridazin-3-yloxy)-3,4-dihydro-2H-1,3-benzoxazin-2-one]: the EC50 in experiment [1] lay in the range of 0.2 to 1 µM. For the same molecule, the IC50 in experiment [2] lay within 0.005 to 0.05 µM.
On to `CN(C)S(=O)(=O)Nc1nccc(CN2C(=O)Oc3cc(Oc4cccnn4)ccc3C23CCC3)c1F` [Compound 181, 3-{[2-(dimethylaminosulfonylamino)-3-fluoro-4-pyridyl]methyl}-7-(3-pyridazinyloxy)-2H,3H-spiro[1,3-benzoxazine-4,1′-cyclobutan]-2-one], for which, in experiment [1], the EC50 was in the range of 0.2 to 1 µM. Further, the IC50 in experiment [2] fell in the range of 0.005 to 0.05 µM.
